Molecular target: angiotensin II AT1 receptor
Assay: Assay A: Angiotensin II binding activity (125I-AII displacement, rat uterine membrane preparation)
Protocol: Assay A: Antiotensin II Binding Activity
Compounds of the invention were tested for ability to bind to the smooth muscle angiotensin II receptor using a rat uterine membrane preparation. […] Rat uterine membranes were prepared from fresh tissue. All procedures were carried out at 4° C. Uteri were stripped of fat and homogenized in phosphate-buffered saline at pH 7.4 containing 5 mM EDTA. The homogenate was centrifuged at 1500×g for 20 min., and the supernatant was recentrifuged at 100,000×g for 60 min. The pellet was resuspended in buffer consisting of 2 mM EDTA and 50 mM Tris-HCl (pH 7.5) to a final protein concentration of 4 mg/ml. […] The reaction was initiated by the addition of membrane protein and the mixture was incubated at 25° C. for 60 min. The incubation was terminated with ice-cold 50 mM Tris-HCl (pH 7.5) and the mixture was filtered to separate membrane-bound labelled peptide from the free ligand. The incubation tube and filter were washed with ice-cold buffer. Filters were assayed for radioactivity in a Micromedic gamma counter.
Nonspecific binding was defined as binding in the presence of 10 μM of unlabelled AII. Specific binding was calculated as total binding minus nonspecific binding. […] Binding data were analyzed by a nonlinear least-squares curve fitting program.

SMILES | IC50 [nM]
CCCCn1nc(C(C)=O)nc1Cc1ccc(-c2ccccc2-c2nnn[nH]2)nc1 [Compound 183] | 390
CCCCc1nc(CCCC)n(Cc2ccc(-c3ccncc3-c3nnn[nH]3)cc2)n1 [Compound 243] | 250
CCCCCn1nc(CCCC)nc1Cc1ccc(-c2ccccc2-c2nnn[nH]2)nc1 [Compound 155] | 86
CCCCn1nc(C(OCCC)OCCC)nc1Cc1ccc(-c2ccccc2-c2nnn[nH]2)nc1 [Compound 177] | 26
CCCCc1nc(C23CC4CC(CC(C4)C2)C3)n(Cc2ccc(-c3ccccc3-c3nnn[nH]3)cc2)n1 [Compound 55] | 80
CCCCc1nc(-c2ccccc2OC)n(Cc2ccc(-c3ccccc3-c3nnn[nH]3)nc2)n1 [Compound 266] | 290
CCCCc1nc(CCCC)n(Cc2ccc(-c3cccnc3-c3nnn[nH]3)cc2)n1 [Compound 242] | 110
CCCCc1cn(C2C3CC4CC(C3)C2C4)c(=O)n1Cc1ccc(-c2ccccc2-c2nnn[nH]2)nc1 (stereo not shown) [Compound 213] | 51
CCCCn1nc(C(F)CCC)nc1Cc1ccc(-c2ccccc2-c2nnn[nH]2)nc1 (stereo not shown) [Compound 161] | 28
CCCCc1nc(CC)n(Cc2ccc(-c3ccccc3-c3nnn[nH]3)cc2)n1 [Compound 40] | 83
CCCCc1cn(CC)c(=O)n1Cc1ccc(-c2ccccc2-c2nnn[nH]2)nc1 [Compound 195] | 34
CCCCn1nc(CCc2ccccc2)nc1Cc1ccc(-c2ccccc2-c2nnn[nH]2)cc1 [Compound 131] | 9.5
CCCCc1nc(CC(OCC)OCC)nn1Cc1ccc(-c2ccccc2-c2nnn[nH]2)cc1 [Compound 38] | 10
CCCCc1nc(-c2ccccc2)nn1Cc1ccc(-c2ccccc2-c2nnn[nH]2)cc1 [Compound 21] | 87
CCCCc1nc(-c2c(F)cccc2F)nn1Cc1ccc(-c2ccccc2-c2nnn[nH]2)nc1 [Compound 269] | 9.7
CCCCCCCCc1nc(CCCC)nn1Cc1ccc(-c2ccccc2-c2nnn[nH]2)cc1 [Compound 28] | 570

SMILES | IC50 [nM]
CCCCn1cc(CC(C)C)n(Cc2ccc(-c3ccccc3-c3nnn[nH]3)nc2)c1=O [Compound 188] | 140
CCCCc1nn(/C(Cc2ccccc2)=C(/OCc2ccccc2)c2ccccc2)c(=O)n1Cc1ccc(-c2ccccc2-c2nn[nH]n2)cc1 [Compound 93] | 480
CCCCn1nc(C(C)(OC)OC)nc1Cc1ccc(-c2ccccc2-c2nnn[nH]2)nc1 [Compound 182] | 59
CCCCc1nc(C(=O)CCC)nn1Cc1ccc(-c2ccccc2-c2nnn[nH]2)cc1 [Compound 31] | 14
CCCCc1cn(-c2ccccc2C(C)C)c(=O)n1Cc1ccc(-c2ccccc2-c2nnn[nH]2)nc1 [Compound 219] | 14
CCCCc1nc(CCc2ccccc2)nn1Cc1ccc(-c2ccccc2-c2nnn[nH]2)nc1 [Compound 253] | 2.6
CCCCc1nc(C(F)F)n(Cc2ccc(-c3ccccc3-c3nnn[nH]3)cc2)n1 [Compound 48] | 680
CCCCc1nc(Cc2ccccc2)nn1Cc1ccc(-c2ccccc2-c2nnn[nH]2)cc1 [Compound 44] | 16
CCCCc1nc(CC(CC)CC)nn1Cc1ccc(-c2ccccc2-c2nnn[nH]2)nc1 [Compound 251] | 25
CCCCc1cn(C2CCCCC2(C)C)c(=O)n1Cc1ccc(-c2ccccc2-c2nnn[nH]2)nc1 (stereo not shown) [Compound 237] | 3.6
CCCCc1nc(-c2ccccc2C(C)C)n(Cc2ccc(-c3ccccc3-c3nnn[nH]3)nc2)n1 [Compound 264] | 11
CCCCc1nc(C(OC)OC)n(Cc2ccc(-c3ccccc3-c3nnn[nH]3)cc2)n1 [Compound 23] | 430
CCCCc1cn(CCCC)c(=O)n1Cc1ccc(-c2ncccc2-c2nnn[nH]2)cc1 [Compound 224] | 91
CCCCc1cn(CCCC)c(=O)n1Cc1ccc(-c2cccnc2-c2nnn[nH]2)cc1 [Compound 227] | 89
CCCCc1nc(CNC(=O)OC(C)(C)C)n(Cc2ccc(-c3ccccc3-c3nnn[nH]3)cc2)n1 [Compound 34] | 640
